Experimental findings from patent US20260034277A1, “SYSTEMS AND METHODS FOR PATHOGEN INACTIVATION OF BLOOD PRODUCTS” (Cerus Corporation, priority 2024, published 2026) are described below.

One data set deals with Klebsiella pneumoniae. The experiment in a line: Klebsiella pneumoniae inactivation in platelet units with amotosalen/UVA, colony forming unit assay. The data set is classed as cell-based. As to the method: A study was performed to evaluate pathogen inactivation with treatment profiles from Example 1 and the bacterium Klebsiella pneumoniae. Units of platelets, prepared in 47% plasma/53% PAS at a volume of 250 mL (except the 70 μM study group at a volume of 200 mL), were inoculated with an overnight culture of Klebsiella pneumoniae (targeting the final concentration in unit of approximately 6 log CFU/mL) and dosed with the target amotosalen concentration (40 μM, 45 μM, 55 μM or 70 μM) in an illumination container of an INTERCEPT® Blood System processing set. The units were mixed well, and samples were collected from each unit prior to UV illumination to determine pre-treatment bacterial titers and amotosalen concentration. The Klebsiella-contaminated platelet units were then subjected to a UVA light dose of 3.8 J/cm^2 (3.2 J/cm^2 for the 200 mL units) using an illuminator with LED light sources having peak wavelength between 340-350 nm. Samples were collected post-illumination and both the pre- and post-UVA illumination samples were analyzed by standard colony forming unit assay to determine the level of bacterial inactivation.
A similar study was performed with the bacterium Klebsiella pneumoniae. Four units of platelets in 47% plasma/53% PAS at a volume of 450 mL were inoculated in a 1.3 L illumination container with an overnight culture of Klebsiella pneumoniae at a target input pathogen concentration of approximately 8 log CFU/mL per unit and dosed with S-59 to achieve a target concentration of 55 μM. Samples were collected pre- and post-UVA illumination with a light dose of 6.3 J/cm^2 for determination of bacterial titers by standard colony forming unit assay and S-59 concentration by HPLC.

The nature of data set [1]: Residual amotosalen (S-59) pre- and post-UVA in treated platelets, HPLC, manual dosing. The settings on record: for Post-UVA S-59: platelets 47% plasma/53% PAS. It is filed as physicochemical. On the procedure:
Multiple studies were performed to determine the level of residual compound remaining after photochemical treatment of platelets with a psoralen for pathogen inactivation. More specifically, the studies were performed using a range of platelet volumes (e.g., 200 mL-450 mL; 50 mL volume increments) and using a single initial input concentration of the psoralen compound, amotosalen (S-59) by changing input volume. For each volume tested, units of platelets, prepared in 47% plasma/53% PAS, were pooled and split into two to three individual units, each in an illumination container of an INTERCEPT® Blood System processing set. The individual units were each dosed with amotosalen from an initial starting concentration (e.g., stock solution) at a volume needed to achieve a final 70 μM target concentration for each platelet volume, mixed well, and subjected to illumination with UVA light. The doses of UVA light tested for each volume included, for example, one or more light doses ranging from 2.5 J/cm^2 to 6.5 J/cm^2. (e.g., 2.5-4.5 J/cm^2 for 200 mL, 3.5-4.0 J/cm^2 for 250 mL 4.5-6.5 J/cm^2 for 300 mL, 5.2 J/cm^2 for 350 mL, 5.5-6.5 J/cm^2 for 400 mL, 6.4-6.5 J/cm^2 for 450 mL). UVA treatment was performed in the illumination container using an illuminator device with LED light (e.g., narrow bandwidth) having peak wavelength between 340-350 nm. Samples were collected both pre- and post-UVA illumination for HPLC analysis of amotosalen concentration.
From the multiple studies above, UVA light doses that provided low residual amotosalen levels (e.g., less than 7.5 μM) post-UVA treatment were selected for each specified platelet volume. These light doses are shown in Table 1 below, together with a corresponding measured volume of platelets, which the light dose may be used in conjunction with. This exemplary light dose and volume relationship identified in the studies may be further defined in the graph of FIG. 4A, which plots UVA light dose versus volume for achieving low residual amotosalen levels.
Each of the 40 μM, 50 μM, 60 μM and 70 μM test conditions used 250 mL sample volumes and UVA light doses of 3.8 J/cm^2. Amotosalen concentrations were determined before and after illumination with UVA.

Where [2] appears, read: target S-59 40 μM, 250 mL platelets, UVA 3.8 J/cm^2.
Where [3] appears, read: target S-59 45 μM, 250 mL platelets, UVA 3.8 J/cm^2.
Setting [4] is: target S-59 55 μM, 250 mL platelets, UVA 3.8 J/cm^2.
Setting [5] is: target S-59 70 μM, 200 mL platelets, UVA 3.2 J/cm^2.

`Cc1oc2c(C)c3oc(=O)cc(C)c3cc2c1COCCN` [S-59, 3-(2-aminoethoxymethyl)-2,5,9-trimethylfuro[3,2-g]chromen-7-one] returned a Post-UVA titer with Klebsiella pneumoniae (device-dosed S-59 target 55 μM, 450 mL platelets, 1.3 L container, UVA 6.3 J/cm^2) of 0.3 ± 0.4 cfu/mL. In the data set with Klebsiella pneumoniae (each of the four target amotosalen input concentrations (40, 45, 55, 70 μM)), the “bacterial inactivation (log reduction)” value was “greater than 5 logs”. Besides, the “Log Reduction” value in the data set with Klebsiella pneumoniae (setting [2]) is on record as 5.6 ± 0.8 log; in the data set on Klebsiella pneumoniae (setting [3]), 5.9 ± 0.0 log; with Klebsiella pneumoniae (setting [4]), 6.0 ± 0.1 log; in the data set with Klebsiella pneumoniae (setting [5]), no less than 6.1 ± 0.1 log. Moreover, the “Post-UVA CFU/mL” value in the data set with Klebsiella pneumoniae (setting [2]) worked out at 6.7 ± 11.5 CFU/mL; in the data set with Klebsiella pneumoniae (setting [3]) it was 0.2 ± 0.1 CFU/mL; in the data set on Klebsiella pneumoniae (setting [4]), 0.4 ± 0.5 CFU/mL; with Klebsiella pneumoniae (setting [5]) it was 0.03 ± 0.1 CFU/mL. In addition, the “Post-UVA S-59” value in data set [1] (200 mL, target 70 μM, UVA 3.2 J/cm^2) is 4.5 ± 1.5 µM; in data set [1] (250 mL, target 70 μM, UVA 3.8 J/cm^2), 5.0 ± 1.1 µM; in data set [1] (300 mL, target 70 μM, UVA 4.5 J/cm^2), 5.1 ± 1.3 µM; in data set [1] (350 mL, target 70 μM, UVA 5.2 J/cm^2), 5.0 ± 0.6 µM; in data set [1] (400 mL, target 70 μM, UVA 6.0 J/cm^2), 4.4 ± 0.8 µM; in data set [1] (450 mL, target 70 μM, UVA 6.4 J/cm^2) it was 5.2 ± 0.8 µM. Also, the “Post-UVA residual amotosalen concentration” value in data set [1] (target 40 μM, 250 mL, UVA 3.8 J/cm^2) is 2.3 ± 0.7 µM; in data set [1] (target 50 μM, 250 mL, UVA 3.8 J/cm^2), 3.0 ± 0.8 µM; in data set [1] (target 60 μM, 250 mL, UVA 3.8 J/cm^2), 3.9 ± 1.4 µM; in data set [1] (target 70 μM, 250 mL, UVA 3.8 J/cm^2), 5.0 ± 1.1 µM.
